ChEMBL document CHEMBL1201862, “PubChem BioAssay data set” (2004)
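Cells were grown in 96-well plates and exposed to each compound for 48 hours at five concentrations; endpoints were interpolated linearly between bracketing concentrations, or set to the highest concentration if not reached. GI50 is the concentration that inhibits growth by half.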 Active and inactive are the calls of the source. No stated cut-off is given here; in the data, active = GI50 up to about 1.1 µM and inactive = higher.

How the values were obtained:
Experiment in all cases: NCI anticancer screen, dose series, 48 h
[1] = tested on: RXF 393
[2] = tested on: HOP-62
[3] = tested on: OVCAR-5
[4] = tested on: TK-10
[5] = tested on: HT-29
[6] = tested on: SF-539
[7] = tested on: SW-620
[8] = tested on: U-251
[9] = tested on: SF-295
[10] = tested on: SK-MEL-2
[11] = tested on: OVCAR-8
[12] = tested on: A549
[13] = tested on: MOLT-4
[14] = tested on: COLO 205
[15] = tested on: OVCAR-4
[16] = tested on: SR
[17] = tested on: SN12C
[18] = tested on: CCRF-CEM
[19] = tested on: MDA-MB-231

Measured: GI50

NC(=O)N1N=C2c3ccccc3OC[C@H]2[C@@H]1c1ccccc1
inactive: [1] 2.72 µM | [2] 23.8 µM | [3] 20.1 µM | [4] 52.4 µM | [5] 27.6 µM | [6] 3.92 µM | [7] 4.99 µM | [8] 5.14 µM | [9] 4.21 µM | [10] 27.6 µM | [11] 5.07 µM | [12] 5.4 µM | [13] 29.5 µM | [14] 18.2 µM | [15] 33.7 µM | [16] 6.31 µM | [17] 23.9 µM | [18] 13.4 µM

CCc1cccc(C)c1NC(=O)C(=O)Cc1nc2ccccc2o1
inactive: [1] > 100 µM | [2] > 100 µM | [3] > 100 µM | [4] > 100 µM | [5] > 100 µM | [6] > 100 µM | [7] > 100 µM | [8] > 100 µM | [9] > 100 µM | [10] > 100 µM | [11] > 100 µM | [13] > 100 µM | [14] > 100 µM | [15] > 100 µM | [16] > 100 µM | [17] > 100 µM | [18] > 100 µM

N[C@H]1CCc2c1nc1c(c2-c2ccccc2)CC[C@@H]1N
inactive: [2] 31.7 µM | [3] 18.3 µM | [4] 28.3 µM | [5] 11.9 µM | [6] 16.1 µM | [7] 12.3 µM | [8] 20.5 µM | [9] 18.5 µM | [10] 18.5 µM | [11] 39.8 µM | [12] 34 µM | [19] 18.3 µM | [13] 8.73 µM | [14] 20.6 µM | [15] 50.8 µM | [16] 31.5 µM | [17] 44.1 µM | [18] 17.6 µM

O=C(c1cccs1)N1CCCN(C(=O)c2cccs2)C1=S
inactive: [1] 36.1 µM | [2] 26.2 µM | [3] > 100 µM | [4] > 100 µM | [5] > 100 µM | [6] > 100 µM | [7] > 100 µM | [8] > 100 µM | [9] > 100 µM | [10] 84.7 µM | [11] > 100 µM | [19] > 100 µM | [13] > 100 µM | [14] > 100 µM | [17] > 100 µM | [18] > 100 µM

CC(C)C(=O)Nc1nc2c(ncn2C2OC(CO)C(O)C2O)c(=O)[nH]1 (stereo not given)
inactive: [1] > 100 µM | [2] > 100 µM | [3] > 100 µM | [4] > 100 µM | [5] > 100 µM | [6] > 100 µM | [7] > 100 µM | [8] > 100 µM | [9] > 100 µM | [10] > 100 µM | [11] > 100 µM | [12] > 100 µM | [13] > 100 µM | [14] > 100 µM | [15] > 100 µM | [16] > 100 µM | [17] > 100 µM | [18] > 100 µM

C#CC1(O)c2ccccc2C(=O)c2ccccc21
inactive: [1] > 100 µM | [2] > 100 µM | [3] > 100 µM | [4] > 100 µM | [5] > 100 µM | [6] > 100 µM | [7] > 100 µM | [8] > 100 µM | [9] > 100 µM | [10] > 100 µM | [11] > 100 µM | [12] > 100 µM | [13] > 100 µM | [14] > 100 µM | [15] > 100 µM | [16] > 100 µM | [17] > 100 µM | [18] > 100 µM
